In paper PMC10367067, “A Series of Non-Oxido V^IV Complexes of Dibasic ONS Donor Ligands: Solution Stability, Chemical Transformations, Protein Interactions, and Antiproliferative Activity” (Inorganic Chemistry, 2023):
Like-named read-outs stand apart in the source and are kept apart here.

What was measured:
[1] = system: HT-29 (colon cancer) cells; assay: MTT assay, HT-29 cells; format: cell-based; conditions: for IC50: 48 h of exposure, mean ± SD; for selectivity index (SI), HT-29: NIH-3T3 vs HT-29, 48 h
Protocol: (§1) HT-29 (colon cancer), HeLa (cervical cancer), and NIH-3T3 (mouse embryonic fibroblasts) cells were maintained in DMEM supplemented with 10% FBS, penicillin–streptomycin solution in a humidified (95% humidity) CO2 incubator (5% CO2). Thereafter, cells were harvested from the logarithmic phase and seeded into a 96-well plate at a concentration of 8 × 10^4 cells per well. After overnight seeding, cells were treated with different concentrations (2.5, 5, 10, 20, and 50 μM) of the tested ligands and vanadium complexes (H2L^1–4 and 1–4) for 48 h. The compounds’ stock solutions were prepared in DMSO. DMEM was used to prepare the final working concentration of the compounds, so that the final amount of DMSO is less than 2%. The effect of the complexes on the viability of the cells was evaluated through MTT dye reduction assay by measuring the optical density at 595 nm.[93] DMSO alone, used to dissolve the complexes, was also employed for the control group treatment.

[2] = system: NIH-3T3 (mouse embryonic fibroblasts) cells; assay: MTT assay, NIH-3T3 normal cells; format: cell-based; conditions: 48 h of exposure, mean ± SD
Protocol: as §1

[3] = system: HeLa (cervical cancer) cells; assay: MTT assay, HeLa cells; format: cell-based; conditions: for IC50: 48 h of exposure, mean ± SD; for selectivity index (SI), HeLa: NIH-3T3 vs HeLa, 48 h
Protocol: as §1

[4] = system: HeLa (cervical cancer) cells; parameters: method as in PMID 36598160, doi:10.1002/aoc.6082; conditions: identical experimental conditions; cited from earlier work
[5] = system: HT-29 (colon cancer) cells; parameters: method as in PMID 36598160, doi:10.1002/aoc.6082; conditions: identical experimental conditions; cited from earlier work
BSA = biological target: T1, BSA (Bos taurus, UniProt P02769); assay: Fluorescence quenching titration of BSA with the complexes; format: binding, bovine; conditions: room temperature
T1 construct: purchased Sigma-Aldrich
T1 sequence (P02769 25-607): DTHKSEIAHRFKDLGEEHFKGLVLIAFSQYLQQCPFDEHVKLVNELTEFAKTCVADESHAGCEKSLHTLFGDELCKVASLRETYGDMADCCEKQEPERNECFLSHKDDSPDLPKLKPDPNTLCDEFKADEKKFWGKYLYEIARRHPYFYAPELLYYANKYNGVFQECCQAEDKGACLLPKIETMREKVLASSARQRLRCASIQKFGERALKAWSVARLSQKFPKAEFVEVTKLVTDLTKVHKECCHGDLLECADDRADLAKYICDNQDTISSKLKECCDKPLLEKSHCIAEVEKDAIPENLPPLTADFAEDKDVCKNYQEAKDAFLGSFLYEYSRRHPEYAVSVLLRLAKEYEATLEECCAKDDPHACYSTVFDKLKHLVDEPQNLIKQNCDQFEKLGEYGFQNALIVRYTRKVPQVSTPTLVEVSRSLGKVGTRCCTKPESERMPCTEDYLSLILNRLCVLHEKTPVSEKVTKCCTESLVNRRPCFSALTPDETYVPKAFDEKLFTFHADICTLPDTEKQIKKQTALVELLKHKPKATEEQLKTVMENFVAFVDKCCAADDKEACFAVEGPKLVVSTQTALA
Protocol: The interaction between complexes 1–4 and BSA was studied using fluorescence quenching spectroscopy on a PerkinElmer LS 55 instrument. The instrumental response was corrected by means of a correction function provided by the manufacturer. The fluorescence experiments were carried out at room temperature and are steady-state measurements. Electronic absorption spectra were measured on a PerkinElmer Lambda35.
Fatty acid free BSA stock solution was prepared in PBS buffer (10 mM, pH 7.4), and the concentration was determined spectrophotometrically considering the extinction coefficient 44,309 M^–1 cm^–1 at 280 nm.[107] Stock solutions of the complexes (ca. 8 × 10^–4 M) were prepared in DMSO and further diluted (1:10) immediately before running the experiments. […] Fluorescence emission spectra were measured at room temperature with λex = 295 nm between 310 and 500 nm. Fluorescence spectra containing the same amount of complex but no BSA were recorded and subtracted from each corresponding emission spectrum of the mixtures. […] UV–vis spectra were measured for each solution, and the absorbance at excitation and emission wavelengths were used to make corrections for inner filter effects and reabsorption.[108],[109]
The Stern–Volmer equation was used to fit the fluorescence quenching data[109] […]

[6] = Solution stability (ESI-MS, EPR); format: physicochemical
Protocol: The stability of all complexes was established in water containing solvents through UV–vis, ESI mass spectrometry, and NMR and EPR spectroscopy.
The aged solutions in MeOH/H2O 90/10 (v/v) were diluted in CH3CN and analyzed by ESI-MS (concentration 50 μM). For all complexes, the most important species remained those detected at t = 0 h, i.e., the non-oxido V^IV complexes [V^IV(L^1–4)2]; the V^V species [V^V(L^1–4)2]^+, derived from the oxidation of the previous one, and [V^VO2(L^1–4)]^− were also detected. At these experimental conditions, the non-oxido V^IV complexes seem to be stable after 24 h with a slight increase in the oxidation process, as indicated by the increment of the relative amount of […] (Figure S14). […] This was considered during the docking studies.
(§2) EPR spectra were recorded 24 h after the dissolution of the most soluble compound, [V^IV(L^1)2] (1), in DMSO and in an aqueous solution in phosphate buffer at pH 7.4 (Figure 8). […] The spectrum in DMSO is very similar to that in CH2Cl2 (cfr. traces in Figures 6 and 8), with the coexistence of fac (1a) and mer (1b) isomers.

HT-29 cells = assay: Annexin V-FITC/PI apoptosis assay by flow cytometry; format: cell-based; conditions: 48 h, control 9%
Protocol: The apoptotic population induced by complexes 1 and 2 in HT-29 cells was evaluated using Annexin V-FITC Apoptosis Detection Kit (Abgenex) by a flow cytometer (BD Accuri C6 flow cytometer; BectoneDickinson).[125] HT-29 cells (3 × 10^5 cells/well) were cultured in a 6-well plate for 24 h. After the cells were adhered, different concentrations (5 and 10 μM) of the tested complexes were treated and incubated for further 48 h. Subsequently, the cells were collected by trypsinization and then suspended in 1X binding buffer. Finally, the suspension was stained with 5 μL of Annexin V and PI at room temperature and incubated for 15 min in the dark. Then, the samples were immediately analyzed under a BD Accuri C6 flow cytometer.

Solubility observations = format: physicochemical
Excerpt: The non-oxido vanadium(IV) complexes (1–4) were synthesized by the reaction of tridentate dibasic ONS donor dithiocarbazates H2L^1–4 with [V^IVO(acac)2] in a 2:1 molar ratio in CH3CN medium (Scheme 1). […] They are soluble in polar aprotic solvents like DMSO, DMF, DCM, THF, and CH3CN and are partially soluble in aqueous media. The solid-state characterization of all compounds was done through elemental analysis, FTIR, and also with single-crystal X-ray diffraction studies of 1–3, while the solution phase characterization was carried out through UV–vis, ESI-MS spectrometry, and EPR spectroscopy. Details of all the characterizations are described in the following sections.
as §2

Row | IC50 ([1]; Homo sapiens, HT-29) | IC50 ([3]; Homo sapiens, HeLa) | IC50 [1] | n (equivalent binding sites of BSA) (BSA; PBS pH 7.4) | KBC (binding constant) (BSA; PBS pH 7.4, from double logarithm plot) | IC50 [3] | solubility in phosphate buffer (Solubility observations; pH 7.4) | SMILES | selectivity index (SI), HT-29 [1] | IC50 ([2]; Mus musculus, NIH3T3) | selectivity index (SI), HeLa [3] | IC50 [4] | IC50 [5] | IC50 [2] | stability by EPR in DMSO ([6]; DMSO, after 24 h) | stability by EPR in aqueous solution ([6]; phosphate buffer pH 7.4, after 24 h) | apoptotic cells (sum of early and late apoptosis) (HT-29 cells; 5 μM) | apoptotic cells (sum of early and late apoptosis) (HT-29 cells; 10 μM) | behaviour in minimum essential medium (MEM, no FBS) (Solubility observations; MEM instead of water)
1 | 14.7 ± 0.6 µM | 15.7 ± 1.9 µM | – | – | – | – | – | CCN(CC)c1ccc(/C=N/NC(=S)SC)c(O)c1 [H2L^1] | 1.6 | 23.5 ± 0.6 µM | 1.5 | – | – | – | – | – | – | – | –
2 | – | – | – | – | – | – | – | N.N.[Cl][Pt][Cl] [cisplatin] | – | – | – | 25.5 ± 0.8 µM | 32.7 ± 0.6 µM | – | – | – | – | – | –
3 | – | – | 7.2 ± 0.6 µM | 0.89 | 2.6 × 10^4 | 9.3 ± 0.2 µM | not completely soluble | CCN(CC)c1ccc2c(c1)[O][V]1([O]c3cc(N(CC)CC)ccc3C=NN=C(SC)[S]1)[S]C(SC)=NN=C2 (centres unmarked) [complex 1, [V^IV(L^1)2]] | 1.2 | – | 0.9 | – | – | 8.7 ± 1.1 µM | the pattern remains substantially unaltered, even though a significant decrease in the spectral intensity is detected | the resonances of [V^IV(L^1)2] are clearly visible | 15.8% | 48.8% | precipitation was evident from the beginning
